Measured values: US10168342B2, “Lipid probes and uses thereof” (THE SCRIPPS RESEARCH INSTITUTE, priority 2015, dated 2019)

Tested on: NAEs, NATs, AA and 2-AG in Neuro2a cells
Test: Targeted LC-MS (MRM) analysis of lipids from Neuro2a cells
Format: cell-based, mouse
Details: for NAEs when co-treated with PF-7845 (1 μM) / AA levels: 10 μM; for AA levels / 2-AG levels / cellular concentrations of NAEs and NATs: Neuro2a cells; for 2-AG levels / cellular concentrations of NAEs and NATs: 10 μM (PF-7845 1 μM); for cellular concentrations of NAEs and NATs: 6 h
Protocol: Discovery metabolite profiling was performed as described by Saghatelian et al., “Assignment of endogenous substrates to enzymes by global metabolite profiling,” Biochemistry 43:14332-14339 (2004) with several modifications. […] The media from the cells was removed and cells were washed with DPBS (2×5.0 mL) before adding freshly prepared media solutions containing vehicle or compound. After incubating for 6 h at 37° C. and subsequent removal of the media, the cells were harvested by scrapping in cold DPBS (3 mL) and pelleted by centrifugation in glass vials. The pellets were washed once with cold DPBS (3 mL) and then cold […] (2:1) (3 mL) was added. After vortexing, the vials were centrifuged (3,000×g, 10 min, 4° C.) and the bottom (organic) layer was transferred to a new glass vial and concentrated under a stream of N2. Samples were stored at −80° C. until the day of analysis when they were reconstituted in Mobile Phase A (100 μL, see below).
Neuro2a cells were treated and lipids extracted as described above. A mixture of internal standards [AEA-d4 (10 pmol), 2-AG-d5 (100 pmol), AA-d8 (100 pmol), PEA-d4 (100 pmol), PDA (1.0 nmol)] was added to the organic phase prior to extracting cells. NAEs, MAGs, AA and NATs were analyzed similarly to previously described methods (Saghatelian et al., 2004). The following MS parameters were used to measure the indicated metabolites by MRM (precursor ion, product ion, collision energy, polarity): NAE 20:4 (AEA) (348, 62, 12, positive), AEA-d4 (352, 66, 12, positive), NAE 16:0 (PEA) (300, 62, 12, positive), PEA-d4 (304, 62, 12, positive), NAE 18:0 (328, 62, 12, positive), NAE 18:1 (326, 62, 12, positive), NAE 18:2 (324, 62, 12, positive), 2-AG (379, 287, 8, positive), 2-AG-d5 (384, 287, 8, positive), AA (303, 259, 4, negative), AA-d8 (311, 267, 4, negative), NAT 20:4 (410, 80, 35, negative), NAT 22:1 (444, 80, 35, negative), NAT 24:1 (472, 80, 35, negative), NAT 24:0 (474, 80, 35, negative), NAT 26:0 (502, 80, 35, negative). The indicated lipids were quantified by measuring the area under the peak relative to an internal standard (AEA-d4 for AEA and NAE 18:2; PEA-d4 for PEA, NAE 18:1 and NAE 18:0; 2-AG-d5 for 2-AG; AA-d8 for AA and 20:4 NAT; PDA for all other NATs).

## CN1CCN(C(=O)c2c(-c3ccccc3)c3cc([N+](=O)[O-])ccc3n2C)CC1 [KML110, (1-Methyl-5-nitro-3-phenyl-1H-indol-2-yl)(4-methylpiperazin-1-yl)methanone]
  NAEs when co-treated with PF-7845 (1 μM): do not produce elevations
  AA levels: do not affect
  2-AG levels: modest increase
  cellular concentrations of NAEs and NATs: elevated

## CN1CCN(C(=O)c2[nH]c3ccc([N+](=O)[O-])cc3c2-c2ccccc2)CC1 [MJN228, (4-Methylpiperazin-1-yl)(5-nitro-3-phenyl-1H-indol-2-yl)methanone]
  NAEs when co-treated with PF-7845 (1 μM): do not produce elevations
  AA levels: do not affect
  2-AG levels: modest increase
  cellular concentrations of NAEs and NATs: elevated
